Where two headings read alike, the source gives them in different places.
Key:
[1] = test system: bloodstream forms of T. b. brucei Lister 427; experiment: Resazurin reduction growth inhibition assay against bloodstream forms of T. b. brucei; type: cell-based, Trypanosoma brucei brucei; details: read-out: IC50 ± SD (µM) T. b. b.
Procedure: Bloodstream forms of T. b. brucei Lister 427, a virulent laboratory strain of Trypanosoma brucei were cultured in HMI-9 medium as previously described. […] The resulting signal measured between 570 nm and 590 nm, is directly proportional to the quantity of viable parasites. […] After incubation, a working solution of resazurin (0.15 mg/mL in DPBS) was added to the plates in a 1:10 (v/v) ratio, followed by incubation for 4 hours at 37 °C with 5% CO2. Fluorescence was measured using an Infinite M200 microplate reader (Tecan) at excitation and emission wavelengths of 530 nm and 590 nm, respectively. Compound achieving ≥ 50% inhibition of trypanosomes were selected for further dose-response studies.
Compounds that adhered to the cutoff criterion (≥ 50% inhibition) were serially diluted and tested for their half-maximal inhibitory concentrations (IC50). […] Dose-response curves were generated using GraphPad Prism software (version 8.0). […]
Data were analysed using Microsoft Excel and GraphPad Prism 8.0. Nonlinear regression with a sigmoidal dose-response fit model was applied to the data to determine IC50 and CC50 values.

[2] = Cytotoxicity, resazurin reduction assay, HepG2; type: cell-based, human; details: human
Procedure: (§1) Vero E6 (African green monkey kidney), Raw264.7 (murine macrophages) and HepG2 (human hepatocyte carcinoma) cell lines, sourced from the American Type Culture Collection, were cultured in DMEM supplemented with 10% (v/v) heat-inactivated fetal bovine serum, 1% (v/v) non-essential amino acids, and 1% (v/v) penicillin-streptomycin. Cells were maintained at 37 °C in a 5% CO2 atmosphere. For cytotoxicity testing, they were seeded (90 µL) in 96-well plates at a density of 1x10^4 cells/well, in duplicate, and allowed to adhere overnight. Serial dilutions (50-0.08 µM) of the compounds were prepared, and 10 µL of each were incubated with the monolayer for 48 hours. Podophyllotoxin was tested as a positive control at 10 μM and 0.5% DMSO (100% cell viability) was used as negative control. Cell viability was then assessed using the resazurin reduction assay, as described above. The 50% cytotoxic concentration (CC50) was calculated using GraphPad Prism software (version 8.0), and selectivity indices (SIs) were determined by dividing the […].
(§2) Data were analysed using Microsoft Excel and GraphPad Prism 8.0. Nonlinear regression with a sigmoidal dose-response fit model was applied to the data to determine IC50 and CC50 values. Results represent the mean ± standard deviation (SD) from two independent experiments performed in duplicate.

[3] = test system: HepG2 (human hepatocyte carcinoma) cells; experiment: Cytotoxicity, resazurin reduction assay, HepG2; type: cell-based
Procedure: as §1, §2

[4] = test system: bloodstream forms of T. b. brucei; experiment: Trypanosome killing kinetics (time-kill assay); type: cell-based, Trypanosoma brucei brucei; details: for activity profile in time-kill assay (trypanocidal or cytostatic): 8IC50, 4IC50, IC50, 0.25IC50, over 72 hours
Procedure: (§3) To evaluate the killing kinetics of selected compounds, bloodstream forms of T. b. brucei (2 x 10⁵ cells/mL) were incubated in normal culture conditions in the presence of compounds at 8IC50, 4IC50, IC50, and 0.25IC50 concentrations in 24-well plates. Upon incubation, cultures were centrifuged at 0, 4, 8, 12, 24, 30, 36, 48, 60, and 72 hours’ time intervals at 2,500 rpm followed by motile trypanosomes enumeration using a Lumascope LS520 inverted microscope. To determine the mode of inhibition (parasitostatic or parasiticidal), a rescue experiment was conducted. Trypanosomes were exposed to the test doses (8IC50, 4IC50, IC50, and 0.25IC50) of the compounds for 4 hours. They were then washed three times with phosphate buffer saline (DPBS 1X), centrifuged at 2,500 rpm for 7 minutes, and resuspended in complete drug-free medium. These parasites were cultured under the same conditions, and motile organisms were enumerated with the Neubauer chamber at regular intervals over 72 hours. Data were plotted using GraphPad Prism 8.0 to determine the inhibition kinetics and classify the inhibitors as cidal or static. Pentamidine isethionate served as the reference compound and experiments were performed in duplicate.

[5] = Cytotoxicity, resazurin reduction assay, Raw264.7; type: cell-based, murine; details: mouse
Procedure: (§4) For cytotoxicity testing, they were seeded (90 µL) in 96-well plates at a density of 1x10^4 cells/well, in duplicate, and allowed to adhere overnight. […] Cell viability was then assessed using the resazurin reduction assay, as described above. […] Data were analysed using Microsoft Excel and GraphPad Prism 8.0. Nonlinear regression with a sigmoidal dose-response fit model was applied to the data to determine IC50 and CC50 values. Results represent the mean ± standard deviation (SD) from two independent experiments performed in duplicate.

[6] = Cytotoxicity, resazurin reduction assay, Vero; type: cell-based; details: African green monkey
Procedure: as §4

[7] = test system: bloodstream forms of T. b. brucei; experiment: Rescue experiment (4 h exposure, washout, drug-free medium); type: cell-based, Trypanosoma brucei brucei; details: 72 hours monitoring, 4xIC50 and 8xIC50
Procedure: as §3

[8] = target: focal adhesion kinase (FAK); design: method as in ref 31 = [31]; 31 Garcia-Echeverria C , Kanazawa T , Kawahara E , Masuya K , Matsuura N , Miyake T . 2, 4-pyrimidinediamines useful in the treatment of neoplastic diseases, inflammatory and immune system disorders .; details: cited from earlier work
[9] = target: anaplastic lymphoma kinase (ALK); design: method as in ref 31 = [31]; 31 Garcia-Echeverria C , Kanazawa T , Kawahara E , Masuya K , Matsuura N , Miyake T . 2, 4-pyrimidinediamines useful in the treatment of neoplastic diseases, inflammatory and immune system disorders .; details: cited from earlier work
[10] = test system: insulin-like growth factor 1 (IGF-1R); design: method as in ref 31 = [31]; 31 Garcia-Echeverria C , Kanazawa T , Kawahara E , Masuya K , Matsuura N , Miyake T . 2, 4-pyrimidinediamines useful in the treatment of neoplastic diseases, inflammatory and immune system disorders .; details: cited from earlier work
[11] = target: leucine-rich repeat kinase 2 (LRRK2); design: method as in ref 31 = [31]; 31 Garcia-Echeverria C , Kanazawa T , Kawahara E , Masuya K , Matsuura N , Miyake T . 2, 4-pyrimidinediamines useful in the treatment of neoplastic diseases, inflammatory and immune system disorders .; details: cited from earlier work
[12] = Trypanosoma brucei, 72 h, primary screen, DMSO stock solution, bloodstream form T. b. brucei Lister 427, 72 hours
[13] = primary screen, DMSO stock solution, bloodstream form T. b. brucei Lister 427, 72 hours

Compound	IC50 [1, 12] [µM]	CC50 at 48 h [2] [µM]	IC50 [1, 13] [µM]	CC50 [3] [µM]	further results
CCOc1cc(CCNC(=O)C[C@H]2S[C@@H](c3ccc(C#Cc4ccccc4)cc3)N(c3cccc(C(N)=O)c3)C2=O)ccc1OC [OGHL00152]	8.87 ± 0.7	–	–	–	–
COc1nc(/C=C/c2nc3n(n2)CCCC3c2ccccc2C(F)(F)F)ccc1-n1cnc(C)c1 (stereo not drawn) [OGHL00208]	7.53 ± 1.27	2.36 ± 0.52	–	–	–
COc1nc(/C=C/c2nc3n(n2)CCC[C@@H]3c2ccccc2C(F)(F)F)ccc1-n1cnc(C)c1 [OGHL00211]	2.37 ± 0.22	5.94 ± 2.55	–	–	–
CNS(=O)(=O)c1ccccc1Nc1nc(Nc2ccc(N3CCOCC3)cc2OC)ncc1Br [OGHL00134]	1.3	22.1 ± 5.06	1.31 ± 0.22	–	–
COc1cc(C(=O)N(C)C)ccc1-c1cc2nccc(-c3ccc4ccncc4c3)c2o1 [OGHL00250]	–	–	2.15 ± 0.2	> 50	–
CCCc1nn(C)c2c(=O)[nH]c(-c3cc(C(=O)N=C(N)N)ccc3OCC)nc12 [OGHL00103]	–	–	7.8 ± 0.07	41.5 ± 3.4	–
CNC(=O)c1cc(Oc2ccc(NC(=O)Nc3cc(C(F)(F)F)ccc3-n3ccnc3)cc2)ccn1 [OGHL00130]	3	12.9 ± 0.5	3.05 ± 0.14	–	–
Cc1ccccc1-c1ccc(-c2nc(-c3ccc(CN(C)CCC(=O)O)c(F)c3)no2)cc1OCC1CC1 [OGHL00165]	–	–	8.83 ± 0.09	> 50	–
COc1ccc(OC)c(CCNC(=O)c2cn3cc(-c4cc(OC)ccc4OC)nc3s2)c1 [OGHL00225]	9.86 ± 0.0007	> 50	–	–	–
Oc1ccc2[nH]cc(CCCCN3CC=C(c4ccccc4)CC3)c2c1 [OGHL00007]	–	–	5.3 ± 0.7	> 50	–
COc1ccc(OCCCO)cc1-c1cn2cc(-c3nnc(NCCCCc4ccccc4)o3)ccc2n1 [OGHL00236]	–	–	6.19 ± 0.4	9.07 ± 0.94	–
N=C(N)c1ccc(OCCCCCOc2ccc(C(=N)N)cc2)cc1 [Pentamidine isethionate, reference compound]	–	–	–	–	activity profile in time-kill assay (trypanocidal or cytostatic) [4]: complete and sustained parasite clearance across all tested concentrations; time of exposure to parasite killing / growth arrest ([4]; time-kill assay): ≤ 24 h
CNS(=O)(=O)c1ccccc1Nc1nc(Nc2cc(OC)c(OC)cc2C)ncc1Br [OGHL00133, 2-((5-bromo-2-((4,5-dimethoxy-2-methylphenyl)amino)pyrimidin-4-yl)amino)-N-methylbenzenesulfonamide]	–	> 50	–	–	IC50 ([1]; Trypanosoma brucei, 72 h, confirmation screen, powdered form, 72 hours): 0.007 ± 0.00073 µM; CC50 at 48 h [5]: 4.5 ± 0.1 µM; CC50 at 48 h [6]: 1.01 ± 0.09 µM; activity profile in time-kill assay (trypanocidal or cytostatic) [4]: cytostatic activity; effect after short exposure and washout (reversible or irreversible) [7]: reversible inhibitory effect; IC50 [8]: 0.0028 µM; IC50 [9]: 0.03 µM; IC50 [10]: < 0.08 µM; IC50 [11]: 0.00013 µM
COc1cccc(CNc2nnc(-c3c[nH]c4ncccc34)o2)c1 [OGHL00138]	–	–	1.55 ± 0.2	23.1 ± 3.57	–
COc1ccc(OCC(N)=O)cc1-c1cn2cc(C(=O)NCCc3c(OC)cccc3OC)sc2n1 [OGHL00241]	2.28 ± 0.04	9.259 ± 0.019	–	–	–
COc1cc(OC)c(CCNC(=O)c2cn3cc(-c4cc(OC)ccc4OC)nc3s2)c(OC)c1 [OGHL00227]	2.8 ± 0.08	> 50	–	–	fold increase in selectivity ([3]; relative to the analogue of the same series named in the sentence): 3.5 fold
CCOc1cc(CCNC(=O)C[C@H]2S[C@@H](c3ccc(C#Cc4ccccc4)cc3)N(c3cccc(C(N)=O)c3)C2=O)ccc1O [OGHL00183]	9.64 ± 0.05	50	–	–	–
CN(CCCCc1ccc(F)cc1)CCC(=O)c1ccc2[nH]c(=O)oc2c1 [OGHL00087]	–	–	8.62 ± 0.093	27.3 ± 4.5	–
COc1cc(OC)c(CCNC(=O)c2ccc3nc(-c4cc(OC)ccc4OC)cn3c2)c(OC)c1 [OGHL00231]	9	> 50	9.06 ± 0.13	–	–
CCC(C)[S+]([O-])c1ccc(-c2nc3ccncc3[nH]2)c(OC)c1 (stereo not drawn) [OGHL00019]	–	–	2.49 ± 0.1	19.8 ± 2.72	–
COc1ccc(C(=O)N2CCC(C)(C)c3cc(C4=NNC(=O)SC4C)ccc32)cc1OC (stereo not drawn) [OGHL00025]	9.22 ± 0.0007	33.3 ± 2.83	–	–	–
CCN=C(c1ccc(OC)c(OC)c1)N1CCCc2cc(C3=NNC(=O)SC3C)ccc21 (stereo not drawn) [OGHL00032]	–	48.43 ± 0.25	–	–	IC50 ([1]; Trypanosoma brucei, 72 h): 5.04 ± 0.16 µM
COc1cc(OC)c(CCNC(=O)c2cn3cc(-c4cc(OCC#N)ccc4OC)nc3s2)c(OC)c1 [OGHL00238]	2.67 ± 0.7	2.01 ± 0.46	–	–	–
COc1cc([C@@H]2c3cc4c(cc3[C@H](O)[C@H]3COC(=O)[C@H]23)OCO4)cc(OC)c1OC [Podophyllotoxin, reference compound]	–	–	–	–	CC50 at 48 h ([2]; primary screen, DMSO stock solution, 48 hours, read-out: CC50 ± SD (µM) HepG2): 0.031 ± 0.009 µM; CC50 at 48 h ([5]; confirmation screen, powdered form, 48 hours, read-out: CC50 ± SD (µM) Raw): 0.016 ± 0.002 µM; CC50 at 48 h ([6]; confirmation screen, powdered form, 48 hours, read-out: CC50 ± SD (µM) Vero): 0.08 ± 0.005 µM

Source: paper PMC12622802, “Potent kinase inhibitors from the Merck KGaA OGHL: Novel hits against Trypanosoma brucei with potential for repurposing” (PLOS Neglected Tropical Diseases, 2025)
